Numbers after ± are expanded uncertainties.
What was measured:
[1] = Crystal; DTA
[2] = Molar enthalpy of transition or fusion; settings: Crystal; DSC

Normal melting temperature [1]: 125.90 ± 1.1 °C
Molar enthalpy of transition or fusion [2]: 7 ± 0.454 kcal/mol
SMILES: N#Cc1ccccc1-c1ccc(CBr)cc1 [4'-(bromomethyl)-2-cyanobiphenyl]
